Experimental data published in the kinase profiling compilation of Christmann-Franck et al. (2016).

Columns and labels:
Assay in all cases: radiometric filter-binding kinase assay, Kinase HotSpot
Conditions in all cases: compound 0.5 µM; ATP 10 µM
GRK7 (human) = GRK7 (human) (UniProt Q8WTQ7)
MYLK2 (human) = MYLK2 (human) (UniProt Q9H1R3)
ROCK1 (human) = ROCK1 (human) (UniProt Q13464)
RPS6KA5 KD2 (human) = RPS6KA5 KD2 (human) (UniProt O75582)
BRSK1 (human) = BRSK1 (human) (UniProt Q8TDC3)
WNK3 (human) = WNK3 (human) (UniProt Q9BYP7)
VRK1 (human) = VRK1 (human) (UniProt Q99986)
ERBB4 (human) = ERBB4 (human) (UniProt Q15303)
TBK1 (human) = TBK1 (human) (UniProt Q9UHD2)
RPS6KA4 KD2 (human) = RPS6KA4 KD2 (human) (UniProt O75676)
ROS1 (human) = ROS1 (human) (UniProt P08922)
JAK2 JH1 JH2 (human) = JAK2 JH1 JH2 (human) (UniProt O60674)
CLK3 (human) = CLK3 (human) (UniProt P49761)
CLK4 (human) = CLK4 (human) (UniProt Q9HAZ1)
ACVRL1 (human) = ACVRL1 (human) (UniProt P37023)
EPHB4 (human) = EPHB4 (human) (UniProt P54760)
CSK (human) = CSK (human) (UniProt P41240)
CAMK2G (human) = CAMK2G (human) (UniProt Q13555)
CLK1 (human) = CLK1 (human) (UniProt P49759)
TEC (human) = TEC (human) (UniProt P42680)
MAP4K5 (human) = MAP4K5 (human) (UniProt Q9Y4K4)
PTK2B (human) = PTK2B (human) (UniProt Q14289)
MINK1 (human) = MINK1 (human) (UniProt Q8N4C8)
MAP3K5 (human) = MAP3K5 (human) (UniProt Q99683)
EPHA7 (human) = EPHA7 (human) (UniProt Q15375)
CDK6 CCND3 (human) = CDK6 CCND3 (human) (UniProt P30281+Q00534)
CDC42BPB (human) = CDC42BPB (human) (UniProt Q9Y5S2)
TAOK3 (human) = TAOK3 (human) (UniProt Q9H2K8)
PNCK (human) = PNCK (human) (UniProt Q6P2M8)
DYRK4 (human) = DYRK4 (human) (UniProt Q9NR20)
CSNK2A1 (human) = CSNK2A1 (human) (UniProt P68400)
MERTK (human) = MERTK (human) (UniProt Q12866)
GSK3B (human) = GSK3B (human) (UniProt P49841)
MAP3K9 (human) = MAP3K9 (human) (UniProt P80192)
CDK9 CCNT1 (human) = CDK9 CCNT1 (human) (UniProt P50750+O60563)
CSNK1A1 (human) = CSNK1A1 (human) (UniProt P48729)
DAPK3 (human) = DAPK3 (human) (UniProt O43293)
LIMK1 (human) = LIMK1 (human) (UniProt P53667)
ULK1 (human) = ULK1 (human) (UniProt O75385)
MAPK11 (human) = MAPK11 (human) (UniProt Q15759)
CDK2 CCNE1 (human) = CDK2 CCNE1 (human) (UniProt P24941+P24864)
DAPK2 (human) = DAPK2 (human) (UniProt Q9UIK4)

Sequence of DYRK4 (human) (Q9NR20 whole entry, looked up): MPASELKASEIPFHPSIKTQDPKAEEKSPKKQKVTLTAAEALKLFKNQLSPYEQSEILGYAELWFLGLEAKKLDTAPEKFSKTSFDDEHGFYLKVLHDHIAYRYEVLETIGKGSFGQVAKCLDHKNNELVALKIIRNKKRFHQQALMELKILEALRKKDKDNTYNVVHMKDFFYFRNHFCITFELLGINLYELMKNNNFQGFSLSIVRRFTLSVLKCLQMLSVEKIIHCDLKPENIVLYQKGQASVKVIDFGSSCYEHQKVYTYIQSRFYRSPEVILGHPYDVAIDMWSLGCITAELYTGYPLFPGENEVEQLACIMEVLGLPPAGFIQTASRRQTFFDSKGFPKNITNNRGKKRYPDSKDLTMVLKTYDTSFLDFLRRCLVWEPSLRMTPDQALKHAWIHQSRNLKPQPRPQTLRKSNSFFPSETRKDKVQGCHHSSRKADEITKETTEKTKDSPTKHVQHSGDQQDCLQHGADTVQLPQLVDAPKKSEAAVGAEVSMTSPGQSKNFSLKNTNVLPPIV
Sequence of WNK3 (human) (Q9BYP7 whole entry, looked up): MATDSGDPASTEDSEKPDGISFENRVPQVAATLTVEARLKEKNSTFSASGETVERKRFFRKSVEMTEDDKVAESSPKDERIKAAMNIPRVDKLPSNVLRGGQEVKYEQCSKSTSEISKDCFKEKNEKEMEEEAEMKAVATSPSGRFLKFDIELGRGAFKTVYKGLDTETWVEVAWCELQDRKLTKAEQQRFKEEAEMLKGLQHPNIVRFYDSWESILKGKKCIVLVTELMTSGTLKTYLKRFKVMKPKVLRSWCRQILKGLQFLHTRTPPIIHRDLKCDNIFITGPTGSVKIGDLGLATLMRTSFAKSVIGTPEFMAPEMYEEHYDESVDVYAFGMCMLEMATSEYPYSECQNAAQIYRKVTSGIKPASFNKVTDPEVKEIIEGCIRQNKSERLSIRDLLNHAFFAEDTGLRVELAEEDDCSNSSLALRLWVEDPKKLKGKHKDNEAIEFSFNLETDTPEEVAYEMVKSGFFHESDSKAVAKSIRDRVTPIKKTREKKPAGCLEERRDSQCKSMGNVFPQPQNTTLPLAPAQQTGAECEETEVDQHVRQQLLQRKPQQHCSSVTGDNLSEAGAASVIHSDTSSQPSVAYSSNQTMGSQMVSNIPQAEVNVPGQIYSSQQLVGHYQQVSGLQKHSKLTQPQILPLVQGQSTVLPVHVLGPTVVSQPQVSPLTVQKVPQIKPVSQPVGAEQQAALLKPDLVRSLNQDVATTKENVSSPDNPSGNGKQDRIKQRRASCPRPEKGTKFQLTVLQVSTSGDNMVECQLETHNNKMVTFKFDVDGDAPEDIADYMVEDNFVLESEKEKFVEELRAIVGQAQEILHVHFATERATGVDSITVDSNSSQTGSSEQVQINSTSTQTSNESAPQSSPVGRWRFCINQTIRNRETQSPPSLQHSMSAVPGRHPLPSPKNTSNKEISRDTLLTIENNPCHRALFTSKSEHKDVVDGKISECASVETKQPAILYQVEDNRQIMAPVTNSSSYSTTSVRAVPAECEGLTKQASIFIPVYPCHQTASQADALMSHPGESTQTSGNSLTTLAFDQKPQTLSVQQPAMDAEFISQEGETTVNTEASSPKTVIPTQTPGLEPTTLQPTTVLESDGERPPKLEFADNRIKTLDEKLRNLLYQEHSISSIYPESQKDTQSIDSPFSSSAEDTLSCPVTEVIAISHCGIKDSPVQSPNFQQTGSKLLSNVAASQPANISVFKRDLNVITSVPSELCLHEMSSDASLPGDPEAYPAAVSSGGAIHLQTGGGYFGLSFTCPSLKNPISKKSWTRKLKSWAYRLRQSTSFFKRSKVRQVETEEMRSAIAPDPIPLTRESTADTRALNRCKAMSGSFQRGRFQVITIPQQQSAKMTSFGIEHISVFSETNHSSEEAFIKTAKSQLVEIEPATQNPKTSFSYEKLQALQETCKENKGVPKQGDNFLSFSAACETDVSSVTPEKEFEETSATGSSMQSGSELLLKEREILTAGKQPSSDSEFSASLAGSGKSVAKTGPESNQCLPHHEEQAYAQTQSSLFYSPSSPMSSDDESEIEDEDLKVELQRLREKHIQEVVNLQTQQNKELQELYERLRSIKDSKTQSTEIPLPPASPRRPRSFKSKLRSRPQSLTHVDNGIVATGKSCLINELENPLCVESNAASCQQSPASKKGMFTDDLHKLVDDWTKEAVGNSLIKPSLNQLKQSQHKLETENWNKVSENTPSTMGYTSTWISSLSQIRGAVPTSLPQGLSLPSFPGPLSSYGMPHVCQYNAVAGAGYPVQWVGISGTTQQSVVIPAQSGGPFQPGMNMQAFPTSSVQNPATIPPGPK
Sequence of RPS6KA5 KD2 (human) (O75582 whole entry, looked up): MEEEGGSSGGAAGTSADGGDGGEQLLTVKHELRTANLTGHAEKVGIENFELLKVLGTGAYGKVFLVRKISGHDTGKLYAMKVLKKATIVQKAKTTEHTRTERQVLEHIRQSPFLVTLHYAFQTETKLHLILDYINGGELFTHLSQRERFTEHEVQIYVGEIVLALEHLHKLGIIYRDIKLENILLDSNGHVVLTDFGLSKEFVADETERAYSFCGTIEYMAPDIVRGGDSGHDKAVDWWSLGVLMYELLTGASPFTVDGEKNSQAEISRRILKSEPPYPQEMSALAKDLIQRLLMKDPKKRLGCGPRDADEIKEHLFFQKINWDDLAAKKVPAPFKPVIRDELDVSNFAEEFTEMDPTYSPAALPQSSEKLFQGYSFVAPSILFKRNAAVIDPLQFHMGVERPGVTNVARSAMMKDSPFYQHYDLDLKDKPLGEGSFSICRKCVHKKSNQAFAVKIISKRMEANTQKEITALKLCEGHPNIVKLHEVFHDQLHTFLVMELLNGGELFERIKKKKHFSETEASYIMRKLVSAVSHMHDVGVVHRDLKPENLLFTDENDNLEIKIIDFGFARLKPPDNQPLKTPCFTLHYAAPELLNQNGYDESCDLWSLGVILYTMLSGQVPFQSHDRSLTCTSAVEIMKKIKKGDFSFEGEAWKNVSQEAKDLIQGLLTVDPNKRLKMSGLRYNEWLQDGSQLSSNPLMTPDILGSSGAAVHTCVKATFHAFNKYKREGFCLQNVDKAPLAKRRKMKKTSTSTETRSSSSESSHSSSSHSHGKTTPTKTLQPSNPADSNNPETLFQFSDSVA
Sequence of MINK1 (human) (Q8N4C8 whole entry, looked up): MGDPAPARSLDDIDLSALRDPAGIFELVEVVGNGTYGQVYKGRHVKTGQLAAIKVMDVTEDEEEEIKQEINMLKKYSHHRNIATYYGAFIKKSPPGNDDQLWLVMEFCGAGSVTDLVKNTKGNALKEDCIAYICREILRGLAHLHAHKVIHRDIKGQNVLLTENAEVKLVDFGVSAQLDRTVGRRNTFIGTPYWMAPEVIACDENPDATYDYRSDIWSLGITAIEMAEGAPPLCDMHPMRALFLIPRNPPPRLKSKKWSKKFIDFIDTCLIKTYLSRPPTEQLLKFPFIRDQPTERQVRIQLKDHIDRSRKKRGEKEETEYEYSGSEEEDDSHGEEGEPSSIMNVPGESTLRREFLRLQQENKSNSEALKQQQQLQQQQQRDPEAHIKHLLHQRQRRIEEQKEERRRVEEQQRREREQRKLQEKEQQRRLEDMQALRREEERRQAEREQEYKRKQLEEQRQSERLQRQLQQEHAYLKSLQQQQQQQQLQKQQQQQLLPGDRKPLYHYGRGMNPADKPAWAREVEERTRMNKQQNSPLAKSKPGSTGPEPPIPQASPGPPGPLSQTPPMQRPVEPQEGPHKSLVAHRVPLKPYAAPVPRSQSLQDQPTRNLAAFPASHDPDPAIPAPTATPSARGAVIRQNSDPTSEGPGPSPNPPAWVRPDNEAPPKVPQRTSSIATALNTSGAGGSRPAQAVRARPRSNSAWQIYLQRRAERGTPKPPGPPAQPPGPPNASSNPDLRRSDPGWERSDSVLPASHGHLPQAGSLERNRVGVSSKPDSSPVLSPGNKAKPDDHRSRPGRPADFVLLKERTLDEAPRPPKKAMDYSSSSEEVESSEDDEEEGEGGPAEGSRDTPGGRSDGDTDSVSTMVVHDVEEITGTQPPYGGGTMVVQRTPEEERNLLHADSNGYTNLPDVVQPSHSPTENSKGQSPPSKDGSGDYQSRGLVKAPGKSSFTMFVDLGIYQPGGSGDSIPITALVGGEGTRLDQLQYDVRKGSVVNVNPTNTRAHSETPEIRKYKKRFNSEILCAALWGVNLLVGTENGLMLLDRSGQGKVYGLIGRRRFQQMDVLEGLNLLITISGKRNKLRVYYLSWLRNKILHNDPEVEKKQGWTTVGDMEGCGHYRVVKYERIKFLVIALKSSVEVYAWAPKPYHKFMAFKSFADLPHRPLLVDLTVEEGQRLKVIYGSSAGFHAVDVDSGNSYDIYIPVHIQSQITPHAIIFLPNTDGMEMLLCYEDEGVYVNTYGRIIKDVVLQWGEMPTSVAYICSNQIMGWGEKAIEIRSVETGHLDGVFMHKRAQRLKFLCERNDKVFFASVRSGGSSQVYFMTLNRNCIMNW
Sequence of MAPK11 (human) (Q15759 whole entry, looked up): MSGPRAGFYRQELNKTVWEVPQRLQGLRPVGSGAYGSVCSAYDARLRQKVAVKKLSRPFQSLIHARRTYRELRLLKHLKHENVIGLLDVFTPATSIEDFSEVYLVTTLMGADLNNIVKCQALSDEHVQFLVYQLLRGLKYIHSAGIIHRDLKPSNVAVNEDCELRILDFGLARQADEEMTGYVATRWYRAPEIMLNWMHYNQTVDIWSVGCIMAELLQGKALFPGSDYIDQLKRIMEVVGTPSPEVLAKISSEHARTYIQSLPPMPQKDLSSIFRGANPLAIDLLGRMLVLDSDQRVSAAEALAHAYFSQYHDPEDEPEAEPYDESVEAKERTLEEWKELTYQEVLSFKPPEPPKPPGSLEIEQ

Cn1cc(/C=C2\C(=O)Nc3ccc(S(N)(=O)=O)cc32)c2ccccc21
residual activity (GRK7 (human)): 20.9%
residual activity (MYLK2 (human)): 53.6%
residual activity (ROCK1 (human)): 63.8%
residual activity (RPS6KA5 KD2 (human)): 80.9%
residual activity (BRSK1 (human)): 47.8%
residual activity (WNK3 (human)): 99%
residual activity (VRK1 (human)): 103%
residual activity (ERBB4 (human)): 81.3%
residual activity (TBK1 (human)): 21.6%
residual activity (RPS6KA4 KD2 (human)): 71.2%
residual activity (ROS1 (human)): 82.2%
residual activity (JAK2 JH1 JH2 (human)): 58.4%
residual activity (CLK3 (human)): 81.4%
residual activity (CLK4 (human)): 42.6%
residual activity (ACVRL1 (human)): 99.1%
residual activity (EPHB4 (human)): 57.4%
residual activity (CSK (human)): 89.3%
residual activity (CAMK2G (human)): 91.9%
residual activity (CLK1 (human)): 88.3%
residual activity (TEC (human)): 157%
residual activity (MAP4K5 (human)): 13.4%
residual activity (PTK2B (human)): 43.1%
residual activity (MINK1 (human)): 53.7%
residual activity (MAP3K5 (human)): 53.2%
residual activity (EPHA7 (human)): 41.3%
residual activity (CDK6 CCND3 (human)): 81.4%
residual activity (CDC42BPB (human)): 114%
residual activity (TAOK3 (human)): 60.2%
residual activity (PNCK (human)): 58.1%
residual activity (DYRK4 (human)): 73.7%
residual activity (CSNK2A1 (human)): 84.7%
residual activity (MERTK (human)): 45.9%
residual activity (GSK3B (human)): 98.4%
residual activity (MAP3K9 (human)): 28.1%
residual activity (CDK9 CCNT1 (human)): 65%
residual activity (CSNK1A1 (human)): 105%
residual activity (DAPK3 (human)): 94.1%
residual activity (LIMK1 (human)): 74.1%
residual activity (ULK1 (human)): 27.5%
residual activity (MAPK11 (human)): 93.8%
residual activity (CDK2 CCNE1 (human)): 77.9%

O=c1c(-c2ccc(F)cc2)c(-c2ccncc2)[nH]n1-c1ccc(Cl)cc1
residual activity (MYLK2 (human)): 101%
residual activity (ROCK1 (human)): 109%
residual activity (RPS6KA5 KD2 (human)): 93.5%
residual activity (BRSK1 (human)): 88.7%
residual activity (WNK3 (human)): 93.6%
residual activity (VRK1 (human)): 92.9%
residual activity (ERBB4 (human)): 73.2%
residual activity (TBK1 (human)): 112%
residual activity (RPS6KA4 KD2 (human)): 103%
residual activity (ROS1 (human)): 97.6%
residual activity (JAK2 JH1 JH2 (human)): 95.1%
residual activity (CLK3 (human)): 88.7%
residual activity (CLK4 (human)): 78.9%
residual activity (ACVRL1 (human)): 88.1%
residual activity (EPHB4 (human)): 97.2%
residual activity (DAPK2 (human)): 104%
residual activity (CSK (human)): 86.1%
residual activity (CAMK2G (human)): 109%
residual activity (CLK1 (human)): 97%
residual activity (TEC (human)): 112%
residual activity (MAP4K5 (human)): 83.1%
residual activity (PTK2B (human)): 91.7%
residual activity (MINK1 (human)): 97.3%
residual activity (MAP3K5 (human)): 115%
residual activity (EPHA7 (human)): 98.5%
residual activity (CDK6 CCND3 (human)): 93.7%
residual activity (CDC42BPB (human)): 103%
residual activity (TAOK3 (human)): 89.5%
residual activity (PNCK (human)): 92%
residual activity (DYRK4 (human)): 81.5%
residual activity (CSNK2A1 (human)): 95.3%
residual activity (MERTK (human)): 82.7%
residual activity (GSK3B (human)): 91.6%
residual activity (MAP3K9 (human)): 103%
residual activity (CDK9 CCNT1 (human)): 101%
residual activity (CSNK1A1 (human)): 63.7%
residual activity (DAPK3 (human)): 94.7%
residual activity (LIMK1 (human)): 91.5%
residual activity (ULK1 (human)): 103%
residual activity (MAPK11 (human)): 55.9%
residual activity (CDK2 CCNE1 (human)): 89.1%

O=S(=O)(NCCNC/C=C/c1ccc(Br)cc1)c1cccc2cnccc12
residual activity (MYLK2 (human)): 96.5%
residual activity (ROCK1 (human)): 37.8%
residual activity (RPS6KA5 KD2 (human)): 39.4%
residual activity (BRSK1 (human)): 92%
residual activity (WNK3 (human)): 93.1%
residual activity (VRK1 (human)): 80.1%
residual activity (ERBB4 (human)): 94.2%
residual activity (TBK1 (human)): 101%
residual activity (RPS6KA4 KD2 (human)): 38.8%
residual activity (ROS1 (human)): 99.6%
residual activity (JAK2 JH1 JH2 (human)): 109%
residual activity (CLK3 (human)): 87.6%
residual activity (CLK4 (human)): 119%
residual activity (ACVRL1 (human)): 119%
residual activity (EPHB4 (human)): 108%
residual activity (DAPK2 (human)): 72.1%
residual activity (CSK (human)): 95.6%
residual activity (CAMK2G (human)): 98.7%
residual activity (CLK1 (human)): 103%
residual activity (TEC (human)): 102%
residual activity (MAP4K5 (human)): 30.9%
residual activity (PTK2B (human)): 85%
residual activity (MINK1 (human)): 91.1%
residual activity (MAP3K5 (human)): 93.2%
residual activity (EPHA7 (human)): 109%
residual activity (CDK6 CCND3 (human)): 96.6%
residual activity (CDC42BPB (human)): 99.5%
residual activity (TAOK3 (human)): 95.4%
residual activity (PNCK (human)): 100%
residual activity (DYRK4 (human)): 96.4%
residual activity (CSNK2A1 (human)): 97.8%
residual activity (MERTK (human)): 79.8%
residual activity (GSK3B (human)): 83.5%
residual activity (MAP3K9 (human)): 99.6%
residual activity (CDK9 CCNT1 (human)): 87.8%
residual activity (CSNK1A1 (human)): 57.9%
residual activity (DAPK3 (human)): 97.4%
residual activity (LIMK1 (human)): 90.6%
residual activity (ULK1 (human)): 102%
residual activity (MAPK11 (human)): 87.2%
residual activity (CDK2 CCNE1 (human)): 99.3%
